Values quoted from earlier work in patent publication US8846084B2, “Controlled release compositions containing zolpidem” (Wockhardt Ltd, priority 2005, dated 2014).

Molecular target: T1, (BZ)1 receptor (Homo sapiens, UniProt P14867+P18507)
T1 sequence (P14867 28-456): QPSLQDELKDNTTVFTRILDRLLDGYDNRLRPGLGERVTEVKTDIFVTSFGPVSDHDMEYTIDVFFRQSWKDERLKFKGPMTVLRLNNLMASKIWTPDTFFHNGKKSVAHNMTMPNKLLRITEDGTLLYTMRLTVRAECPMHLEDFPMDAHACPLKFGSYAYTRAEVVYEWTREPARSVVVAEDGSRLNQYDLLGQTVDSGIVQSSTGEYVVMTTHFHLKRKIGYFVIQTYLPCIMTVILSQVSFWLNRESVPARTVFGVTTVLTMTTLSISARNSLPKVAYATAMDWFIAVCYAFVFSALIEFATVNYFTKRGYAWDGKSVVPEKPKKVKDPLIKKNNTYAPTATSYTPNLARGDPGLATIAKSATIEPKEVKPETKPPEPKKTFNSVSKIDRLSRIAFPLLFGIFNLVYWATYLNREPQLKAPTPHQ
T1 sequence (P18507 40-467 limits assumed): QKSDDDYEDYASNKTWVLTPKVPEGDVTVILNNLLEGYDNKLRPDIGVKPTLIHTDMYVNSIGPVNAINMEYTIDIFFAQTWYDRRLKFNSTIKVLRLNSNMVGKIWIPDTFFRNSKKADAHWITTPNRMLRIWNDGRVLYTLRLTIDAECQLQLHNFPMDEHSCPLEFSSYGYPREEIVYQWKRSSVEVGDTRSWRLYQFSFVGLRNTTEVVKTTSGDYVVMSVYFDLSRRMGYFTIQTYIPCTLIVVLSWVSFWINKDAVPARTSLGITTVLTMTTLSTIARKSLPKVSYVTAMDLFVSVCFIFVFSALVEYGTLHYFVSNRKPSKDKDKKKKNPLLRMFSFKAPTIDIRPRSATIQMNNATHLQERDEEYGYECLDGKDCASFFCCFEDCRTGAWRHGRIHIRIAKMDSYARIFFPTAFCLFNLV
T1 sequence (P47870 25-512 partner limits assumed): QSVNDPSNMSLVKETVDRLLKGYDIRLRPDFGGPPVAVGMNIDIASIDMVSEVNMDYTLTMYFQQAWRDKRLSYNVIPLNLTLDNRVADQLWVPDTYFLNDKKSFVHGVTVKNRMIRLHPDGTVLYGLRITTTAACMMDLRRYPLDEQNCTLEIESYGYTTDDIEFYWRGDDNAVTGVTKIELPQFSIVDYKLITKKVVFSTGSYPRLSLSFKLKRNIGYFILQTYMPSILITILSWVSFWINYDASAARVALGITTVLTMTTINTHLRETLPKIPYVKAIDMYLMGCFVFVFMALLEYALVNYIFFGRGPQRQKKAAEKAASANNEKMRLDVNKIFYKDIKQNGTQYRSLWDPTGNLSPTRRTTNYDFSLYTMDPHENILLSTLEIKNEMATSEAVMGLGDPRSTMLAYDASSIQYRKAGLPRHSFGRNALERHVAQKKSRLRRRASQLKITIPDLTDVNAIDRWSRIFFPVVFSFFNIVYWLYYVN
Conditions: in vitro; affinity ratio of the α1-subunits/α5-subunits

Compound: Cc1ccc(-c2nc3ccc(C)cn3c2CC(=O)N(C)C)cc1 [zolpidem, N,N,6-trimethyl-2-p-tolylimidazo[1,2-a]pyridine-3-acetamide]
- receptor subtype binding preference: binds the (BZ)1 receptor preferentially with a high affinity ratio
